Test results reported in ChEMBL document CHEMBL3621069 (Bioorg Med Chem Lett, 2015).

Legend:
[1] = target: T1, Tyrosine-protein kinase SYK (Homo sapiens, UniProt P43405); assay: Inhibition of purified full-length human SYK pre-incubated for 30 mins at room temperature before Ulight-TK peptide substrate addition and measured 1 hr after substrate addition by cell free kinase assay
[2] = target: T1, Tyrosine-protein kinase SYK; assay: Inhibition of SYK-mediated TNFalpha production in human IgG-stimulated human THP1 cells incubated for 18 hrs by ELISA method; format: cell-based, THP-1
[3] = target: Vascular endothelial growth factor receptor 2 (Homo sapiens, UniProt P35968); assay: Inhibition of KDR (unknown origin) pre-incubated for 30 mins at room temperature before substrate addition and measured 1 hr after substrate addition by cell free kinase assay
[4] = Apparent permeability from apical to basolateral side in human Caco2 cells; format: ADME, cell-based; conditions: Caco-2
[5] = test system: Salmonella typhimurium; assay: Genotoxicity in Salmonella typhimurium TA98 at 5000 µg/plate in presence of liver S9 fraction by Ames test; format: toxicity, organism-based; conditions: salmonella enterica subsp. enterica serovar typhimurium
[6] = test system: Salmonella typhimurium; assay: Genotoxicity in Salmonella typhimurium TA98 at 5000 µg/plate in absence of liver S9 fraction by Ames test; format: toxicity, organism-based; conditions: salmonella enterica subsp. enterica serovar typhimurium
[7] = test system: Salmonella typhimurium; assay: Genotoxicity in Salmonella typhimurium TA1535 at 5000 µg/plate in absence of liver S9 fraction by Ames test; format: toxicity, organism-based; conditions: salmonella enterica subsp. enterica serovar typhimurium
[8] = test system: Salmonella typhimurium; assay: Genotoxicity in Salmonella typhimurium TA1537 at 5000 µg/plate in absence of liver S9 fraction by Ames test; format: toxicity, organism-based; conditions: salmonella enterica subsp. enterica serovar typhimurium
[9] = test system: Salmonella typhimurium; assay: Mutagenicity in Salmonella typhimurium TA100 at 5000 µg/plate in presence of liver S9 fraction by Ames test; format: toxicity, organism-based; conditions: salmonella enterica subsp. enterica serovar typhimurium
[10] = test system: Salmonella typhimurium; assay: Mutagenicity in Salmonella typhimurium TA100 at 5000 µg/plate in absence of liver S9 fraction by Ames test; format: toxicity, organism-based; conditions: salmonella enterica subsp. enterica serovar typhimurium
[11] = test system: Salmonella typhimurium; assay: Mutagenicity in Salmonella typhimurium TA1535 at 5000 µg/plate in presence of liver S9 fraction by Ames test; format: toxicity, organism-based; conditions: salmonella enterica subsp. enterica serovar typhimurium
[12] = test system: Rattus norvegicus; assay: Volume of distribution at steady state in Sprague-Dawley rat at 10 mg/kg, po; format: ADME, organism-based; conditions: in vivo
[13] = target: Proto-oncogene tyrosine-protein kinase receptor Ret (Homo sapiens, UniProt P07949); assay: Inhibition of human RET pre-incubated for 30 mins at room temperature before substrate addition and measured 1 hr after substrate addition by cell free kinase assay
[14] = target: Mitogen-activated protein kinase kinase kinase 9 (Homo sapiens) (UniProt P80192); assay: Inhibition of human MLK1 at 0.1 uM
[15] = target: Mitogen-activated protein kinase kinase kinase 9 (Homo sapiens) (UniProt P80192); assay: Inhibition of human MLK1 at 0.01 uM
[16] = target: Voltage-gated inwardly rectifying potassium channel KCNH2 (Homo sapiens, UniProt Q12809); assay: Inhibition of human ERG by manual patch clamp assay
[17] = Clearance in dog at 5 mg/kg, iv; format: ADME, organism-based, Canis lupus familiaris; conditions: in vivo
[18] = Volume of distribution at steady state in dog at 5 mg/kg, iv; format: ADME, organism-based, Canis lupus familiaris; conditions: in vivo, read-out: Vdss
[19] = Half life in dog at 5 mg/kg, iv; format: ADME, organism-based, Canis lupus familiaris; conditions: in vivo
[20] = AUClast in dog at 5 mg/kg, iv; format: ADME, organism-based, Canis lupus familiaris; set-up: dose 5 mg/kg, time 0 - last, route intravenous; conditions: in vivo
[21] = AUClast in dog at 10 mg/kg, po; format: ADME, organism-based, Canis lupus familiaris; set-up: dose 10 mg/kg, route oral, time 0 - last; conditions: in vivo
[22] = Oral bioavailability in dog at 10 mg/kg; format: ADME, organism-based, Canis lupus familiaris; conditions: in vivo
[23] = test system: Mus musculus; assay: Anti-arthritic activity in DBA1/J mouse model of collagen-induced arthritis assessed as reduction in arthritis clinical scores at 10 mg/kg, po administered orally continued once daily and twice daily through study; format: functional
[24] = test system: Mus musculus; assay: Anti-arthritic activity in DBA1/J mouse model of collagen-induced arthritis assessed as reduction in arthritis clinical scores at 30 mg/kg, po administered orally continued once daily and twice daily through study; format: functional
[25] = test system: Tyrosine-protein kinase ABL1 (Homo sapiens), P00519 [Q252H]; assay: Inhibition of human Abl Q252H mutant at 0.1 uM
[26] = test system: Epidermal growth factor receptor (Homo sapiens), P00533 [T790M]; assay: Inhibition of human EGFR T790M mutant at 0.1 uM; format: protein assay
[27] = test system: Epidermal growth factor receptor (Homo sapiens), P00533 [L858R,T790M]; assay: Inhibition of human EGFR T790M/L858R mutant at 0.1 uM; format: protein assay
[28] = test system: Receptor-type tyrosine-protein kinase FLT3 (Homo sapiens), P36888 [D835Y]; assay: Inhibition of human Flt3 D835Y mutant at 0.1 uM
[29] = target: Serine/threonine-protein kinase PLK3 (Homo sapiens) (UniProt Q9H4B4); assay: Inhibition of human Plk3 at 0.1 uM
[30] = target: Tyrosine-protein kinase Fgr (Homo sapiens) (UniProt P09769); assay: Inhibition of human Fgr at 0.1 uM
[31] = target: Tyrosine-protein kinase Fyn (Homo sapiens) (UniProt P06241); assay: Inhibition of human Fyn (unknown origin) at 0.1 uM
[32] = target: Tyrosine-protein kinase Lck (Homo sapiens) (UniProt P06239); assay: Inhibition of human Lck at 0.1 uM
[33] = target: Tyrosine-protein kinase Lyn (Homo sapiens) (UniProt P07948); assay: Inhibition of human Lyn at 0.1 uM
[34] = target: Tyrosine-protein kinase Yes (Homo sapiens) (UniProt P07947); assay: Inhibition of human Yes at 0.1 uM
[35] = target: Proto-oncogene tyrosine-protein kinase Src (Homo sapiens) (UniProt P12931); assay: Inhibition of human Src (1 to 530 residues) at 0.1 uM
[36] = test system: Proto-oncogene tyrosine-protein kinase Src (Homo sapiens), P12931 [T341M]; assay: Inhibition of human Src T341M mutant at 0.1 uM
[37] = target: Tyrosine-protein kinase HCK (Homo sapiens) (UniProt P08631); assay: Inhibition of human Hck at 0.1 uM
[38] = target: Tyrosine-protein kinase Blk (Homo sapiens) (UniProt P51451); assay: Inhibition of human Blk at 0.1 uM
[39] = test system: Tyrosine-protein kinase ABL1 (Homo sapiens), P00519 [Q252H]; assay: Inhibition of human Abl Q252H mutant at 0.01 uM
[40] = test system: Epidermal growth factor receptor (Homo sapiens), P00533 [T790M]; assay: Inhibition of human EGFR T790M mutant at 0.01 uM; format: protein assay
[41] = test system: Epidermal growth factor receptor (Homo sapiens), P00533 [L858R,T790M]; assay: Inhibition of human EGFR T790M/L858R mutant at 0.01 uM; format: protein assay
[42] = test system: Receptor-type tyrosine-protein kinase FLT3 (Homo sapiens), P36888 [D835Y]; assay: Inhibition of human Flt3 D835Y mutant at 0.01 uM
[43] = target: Serine/threonine-protein kinase PLK3 (Homo sapiens) (UniProt Q9H4B4); assay: Inhibition of human Plk3 at 0.01 uM
[44] = test system: Proto-oncogene tyrosine-protein kinase receptor Ret (Homo sapiens), P07949 [V804L]; conditions: 0.1 uM
Description: Inhibition of human Ret V804L mutant at 0.1 uM

[45] = test system: Proto-oncogene tyrosine-protein kinase receptor Ret (Homo sapiens), P07949 [V804M]; conditions: 0.1 uM
Description: Inhibition of human Ret V804M mutant at 0.1 uM

[46] = test system: Proto-oncogene tyrosine-protein kinase receptor Ret (Homo sapiens), P07949 [V804L]; conditions: 0.01 uM
Description: Inhibition of human Ret V804L mutant at 0.01 uM

[47] = test system: Proto-oncogene tyrosine-protein kinase receptor Ret (Homo sapiens), P07949 [V804M]; conditions: 0.01 uM
Description: Inhibition of human Ret V804M mutant at 0.01 uM

Chain of Proto-oncogene tyrosine-protein kinase receptor Ret (Homo sapiens), P07949 [V804L] (P07949 whole entry V804L): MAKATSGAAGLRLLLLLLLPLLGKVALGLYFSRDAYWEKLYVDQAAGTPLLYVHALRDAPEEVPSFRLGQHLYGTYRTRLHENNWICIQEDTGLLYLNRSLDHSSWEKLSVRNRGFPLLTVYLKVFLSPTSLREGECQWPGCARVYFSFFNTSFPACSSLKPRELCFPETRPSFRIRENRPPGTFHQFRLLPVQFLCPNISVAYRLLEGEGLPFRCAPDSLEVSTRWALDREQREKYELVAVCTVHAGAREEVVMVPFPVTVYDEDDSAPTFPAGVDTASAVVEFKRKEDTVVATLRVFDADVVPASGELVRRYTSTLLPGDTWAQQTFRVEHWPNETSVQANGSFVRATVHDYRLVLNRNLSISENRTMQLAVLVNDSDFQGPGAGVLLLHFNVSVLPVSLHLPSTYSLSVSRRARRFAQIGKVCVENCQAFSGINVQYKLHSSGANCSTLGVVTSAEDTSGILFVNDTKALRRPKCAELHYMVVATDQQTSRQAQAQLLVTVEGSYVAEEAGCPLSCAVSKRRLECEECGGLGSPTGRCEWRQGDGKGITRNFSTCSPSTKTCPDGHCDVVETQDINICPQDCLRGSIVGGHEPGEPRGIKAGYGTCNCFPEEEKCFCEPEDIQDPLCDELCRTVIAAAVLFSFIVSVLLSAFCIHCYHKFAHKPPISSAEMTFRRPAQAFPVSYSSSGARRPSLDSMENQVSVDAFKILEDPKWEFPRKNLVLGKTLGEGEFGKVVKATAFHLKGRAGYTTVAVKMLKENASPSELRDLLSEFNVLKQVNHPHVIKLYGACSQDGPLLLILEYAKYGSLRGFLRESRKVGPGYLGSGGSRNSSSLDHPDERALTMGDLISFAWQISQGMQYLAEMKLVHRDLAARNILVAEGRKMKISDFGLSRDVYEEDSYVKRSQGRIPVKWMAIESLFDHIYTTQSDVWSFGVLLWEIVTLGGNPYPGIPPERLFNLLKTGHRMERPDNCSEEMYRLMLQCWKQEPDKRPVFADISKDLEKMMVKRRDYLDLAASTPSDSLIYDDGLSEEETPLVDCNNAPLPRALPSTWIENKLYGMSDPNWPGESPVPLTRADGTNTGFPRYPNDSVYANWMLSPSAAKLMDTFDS
Chain of Proto-oncogene tyrosine-protein kinase receptor Ret (Homo sapiens), P07949 [V804M] (P07949 whole entry V804M): as the sequence (P07949 whole entry V804L) above, with L804M counted along it
Chain of Serine/threonine-protein kinase PLK3 (Homo sapiens) (Q9H4B4 whole entry, looked up): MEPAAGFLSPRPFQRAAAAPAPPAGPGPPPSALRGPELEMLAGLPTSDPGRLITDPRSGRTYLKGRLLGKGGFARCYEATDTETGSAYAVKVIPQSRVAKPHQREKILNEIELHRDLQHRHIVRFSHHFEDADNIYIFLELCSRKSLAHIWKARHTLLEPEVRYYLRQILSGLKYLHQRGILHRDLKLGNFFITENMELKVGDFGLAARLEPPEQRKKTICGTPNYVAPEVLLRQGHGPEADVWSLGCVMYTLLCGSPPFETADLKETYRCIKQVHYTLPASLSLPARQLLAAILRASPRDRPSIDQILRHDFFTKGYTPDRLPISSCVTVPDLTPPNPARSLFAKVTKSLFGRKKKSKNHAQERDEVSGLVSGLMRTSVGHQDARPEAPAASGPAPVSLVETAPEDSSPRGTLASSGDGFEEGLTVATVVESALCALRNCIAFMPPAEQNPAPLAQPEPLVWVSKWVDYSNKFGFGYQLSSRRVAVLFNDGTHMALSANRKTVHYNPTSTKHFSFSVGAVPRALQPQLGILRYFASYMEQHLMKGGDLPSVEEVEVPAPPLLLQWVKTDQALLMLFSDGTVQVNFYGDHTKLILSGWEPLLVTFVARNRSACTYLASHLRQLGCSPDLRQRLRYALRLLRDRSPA
Chain of Epidermal growth factor receptor (Homo sapiens), P00533 [L858R,T790M] (P00533 whole entry T790M/L858R, looked up): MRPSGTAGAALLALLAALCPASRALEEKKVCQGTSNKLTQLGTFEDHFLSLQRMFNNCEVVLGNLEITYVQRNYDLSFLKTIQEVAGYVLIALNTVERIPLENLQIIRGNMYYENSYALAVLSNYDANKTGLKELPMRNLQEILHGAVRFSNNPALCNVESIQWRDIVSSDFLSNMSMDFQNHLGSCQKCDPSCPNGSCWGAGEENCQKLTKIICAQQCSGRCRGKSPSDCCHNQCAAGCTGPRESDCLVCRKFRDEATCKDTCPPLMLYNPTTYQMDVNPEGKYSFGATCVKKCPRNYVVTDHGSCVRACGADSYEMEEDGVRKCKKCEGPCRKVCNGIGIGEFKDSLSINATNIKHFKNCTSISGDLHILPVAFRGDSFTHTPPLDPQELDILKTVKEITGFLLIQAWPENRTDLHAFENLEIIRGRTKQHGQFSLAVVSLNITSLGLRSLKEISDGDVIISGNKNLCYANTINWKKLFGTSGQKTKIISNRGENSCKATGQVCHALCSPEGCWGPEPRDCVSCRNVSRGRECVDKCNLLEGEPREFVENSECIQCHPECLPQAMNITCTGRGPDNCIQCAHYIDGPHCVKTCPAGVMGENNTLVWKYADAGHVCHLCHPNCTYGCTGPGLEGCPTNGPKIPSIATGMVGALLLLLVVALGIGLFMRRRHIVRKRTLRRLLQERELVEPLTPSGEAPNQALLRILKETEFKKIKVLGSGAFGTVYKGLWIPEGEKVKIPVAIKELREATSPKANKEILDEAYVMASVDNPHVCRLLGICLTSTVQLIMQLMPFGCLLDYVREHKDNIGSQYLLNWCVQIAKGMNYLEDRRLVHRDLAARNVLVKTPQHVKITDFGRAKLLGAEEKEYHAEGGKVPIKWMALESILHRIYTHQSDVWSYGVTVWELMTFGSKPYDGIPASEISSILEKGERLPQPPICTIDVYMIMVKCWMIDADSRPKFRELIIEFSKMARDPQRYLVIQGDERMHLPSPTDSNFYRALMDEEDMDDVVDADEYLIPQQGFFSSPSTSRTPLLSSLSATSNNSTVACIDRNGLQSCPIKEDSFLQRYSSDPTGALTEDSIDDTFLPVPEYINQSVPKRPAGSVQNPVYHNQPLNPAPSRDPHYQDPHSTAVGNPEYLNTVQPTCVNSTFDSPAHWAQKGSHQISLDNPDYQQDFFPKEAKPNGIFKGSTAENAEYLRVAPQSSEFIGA
Chain of Epidermal growth factor receptor (Homo sapiens), P00533 [T790M] (P00533 whole entry T790M): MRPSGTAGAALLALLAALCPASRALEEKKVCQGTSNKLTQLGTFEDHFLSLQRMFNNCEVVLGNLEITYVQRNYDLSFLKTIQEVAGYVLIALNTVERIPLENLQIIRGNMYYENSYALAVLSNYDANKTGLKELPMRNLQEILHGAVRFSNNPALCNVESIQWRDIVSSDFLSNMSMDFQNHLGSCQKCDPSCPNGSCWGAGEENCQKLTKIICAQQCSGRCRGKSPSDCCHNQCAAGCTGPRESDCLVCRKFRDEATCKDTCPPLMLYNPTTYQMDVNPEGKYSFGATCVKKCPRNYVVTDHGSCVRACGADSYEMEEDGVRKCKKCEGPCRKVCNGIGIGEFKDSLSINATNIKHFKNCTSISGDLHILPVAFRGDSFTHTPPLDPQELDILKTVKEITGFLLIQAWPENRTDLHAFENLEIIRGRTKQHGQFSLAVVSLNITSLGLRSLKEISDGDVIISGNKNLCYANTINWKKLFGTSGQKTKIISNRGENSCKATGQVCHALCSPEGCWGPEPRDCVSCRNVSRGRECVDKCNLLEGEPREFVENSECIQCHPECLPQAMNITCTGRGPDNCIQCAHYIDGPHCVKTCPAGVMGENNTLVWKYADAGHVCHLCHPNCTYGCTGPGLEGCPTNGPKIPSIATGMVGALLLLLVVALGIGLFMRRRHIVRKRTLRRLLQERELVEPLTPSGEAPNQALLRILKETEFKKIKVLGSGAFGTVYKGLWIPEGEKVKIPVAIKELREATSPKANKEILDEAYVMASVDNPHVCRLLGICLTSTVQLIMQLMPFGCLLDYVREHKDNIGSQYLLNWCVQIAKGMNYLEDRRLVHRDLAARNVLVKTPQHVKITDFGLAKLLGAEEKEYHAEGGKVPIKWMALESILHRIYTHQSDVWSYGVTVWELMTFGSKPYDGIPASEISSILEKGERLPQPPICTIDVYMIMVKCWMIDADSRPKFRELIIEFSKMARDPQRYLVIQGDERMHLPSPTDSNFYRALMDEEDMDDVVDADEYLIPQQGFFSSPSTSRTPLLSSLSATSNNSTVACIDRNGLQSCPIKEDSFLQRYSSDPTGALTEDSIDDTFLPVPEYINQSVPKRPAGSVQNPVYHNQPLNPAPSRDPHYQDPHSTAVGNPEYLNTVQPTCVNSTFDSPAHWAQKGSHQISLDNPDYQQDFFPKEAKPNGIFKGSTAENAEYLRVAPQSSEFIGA
Chain of Tyrosine-protein kinase Yes (Homo sapiens) (P07947 2-543 limits assumed): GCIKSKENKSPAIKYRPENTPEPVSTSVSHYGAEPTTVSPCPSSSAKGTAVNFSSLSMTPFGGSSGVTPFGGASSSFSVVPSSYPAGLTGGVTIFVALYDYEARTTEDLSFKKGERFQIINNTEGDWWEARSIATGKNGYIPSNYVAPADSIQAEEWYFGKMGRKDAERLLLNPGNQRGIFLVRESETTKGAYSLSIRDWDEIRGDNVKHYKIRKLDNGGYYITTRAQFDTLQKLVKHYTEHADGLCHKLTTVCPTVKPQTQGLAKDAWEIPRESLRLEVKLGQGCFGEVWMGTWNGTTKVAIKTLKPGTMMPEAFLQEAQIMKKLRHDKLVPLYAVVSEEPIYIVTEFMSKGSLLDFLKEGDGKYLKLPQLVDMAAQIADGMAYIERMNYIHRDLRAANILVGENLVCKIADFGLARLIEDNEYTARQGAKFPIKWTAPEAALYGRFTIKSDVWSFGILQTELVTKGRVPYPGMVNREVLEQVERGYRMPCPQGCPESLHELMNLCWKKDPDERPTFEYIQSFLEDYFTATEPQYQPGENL
Chain of Proto-oncogene tyrosine-protein kinase receptor Ret (P07949 whole entry): as the sequence (P07949 whole entry V804L) above, with L804V counted along it

## Cc1nn(-c2ccnc(Nc3ccc4c(c3)c(C)c(C)n4C)n2)cc1CN1CC(O)C1
[1]
  IC50: 1.7 nM
[2]
  IC50: 56 nM
[3]
  IC50: 653 nM
[4]
  Papp A→B: 6.2 ×10⁻⁶ cm/s
[5]
  Activity: Non-toxic
[6]
  Activity: Non-toxic
[7]
  Activity: Non-toxic
[8]
  Activity: Non-toxic
[9]
  Activity: Non-toxic
[10]
  Activity: Non-toxic
[11]
  Activity: Non-toxic
[12]
  Vdss: 3.7 L/kg

## Cc1nn(-c2ccnc(Nc3ccc4c(c3)c(Cl)c(C)n4C)n2)cc1CN1CC(O)C1
[13]
  IC50: 67.8 nM
[14]
  inhibition: 91%
[15]
  inhibition: 44%
[4]
  Papp A→B: 2.7 ×10⁻⁶ cm/s
[16]
  IC50: 24.2 µM
[5]
  Activity: Non-toxic
[6]
  Activity: Non-toxic
[7]
  Activity: Non-toxic
[8]
  Activity: Non-toxic
[9]
  Activity: Non-toxic
[10]
  Activity: Non-toxic
[11]
  Activity: Non-toxic
[12]
  Vdss: 3.3 L/kg
[17]
  clearance: 40.4 mL/min/kg
[18]
  Vd: 7.1 L/kg
[19]
  half-life: 276 min
[20]
  AUC(0-t): 2090 ng·h/mL
[21]
  AUC(0-t): 1940 ng·h/mL
[22]
  bioavailability: 46.4%
[23]
  inhibition in vivo at 10 mg/kg: 30%
[24]
  inhibition in vivo at 30 mg/kg: 50%
[25]
  inhibition: > 70%
[26]
  inhibition: > 70%
[27]
  inhibition: > 70%
[28]
  inhibition: > 70%
[29]
  inhibition: > 70%
[30]
  inhibition: < 25%
[31]
  inhibition: < 25%
[32]
  inhibition: < 25%
[33]
  inhibition: < 25%
[34]
  inhibition: < 25%
[35]
  inhibition: < 25%
[36]
  inhibition: < 25%
[37]
  inhibition: < 25%
[38]
  inhibition: < 25%
[39]
  inhibition: < 50%
[40]
  inhibition: < 50%
[41]
  inhibition: < 50%
[42]
  inhibition: < 50%
[43]
  inhibition: < 50%
[44]
  inhibition: > 70%
[45]
  inhibition: > 70%
[46]
  inhibition: < 50%
[47]
  inhibition: < 50%
